# Measurements taken from paper PMC7529893, “Structural basis for substrate recognition and chemical inhibition of oncogenic MAGE ubiquitin ligases” (Nature Communications, 2020).
# Target: T1, MAGE-A11:PCF11 interaction (GST-MAGE-A11 and FAM-PCF11_4) (Homo sapiens, UniProt P43364)
# T1 construct: GST-MAGE-A11 MHD (human MAGE-A11 MHD amino acid 218-429); made in house; host or cells: E. coli BL21(DE3)
# T1 sequence (P43364 218-429): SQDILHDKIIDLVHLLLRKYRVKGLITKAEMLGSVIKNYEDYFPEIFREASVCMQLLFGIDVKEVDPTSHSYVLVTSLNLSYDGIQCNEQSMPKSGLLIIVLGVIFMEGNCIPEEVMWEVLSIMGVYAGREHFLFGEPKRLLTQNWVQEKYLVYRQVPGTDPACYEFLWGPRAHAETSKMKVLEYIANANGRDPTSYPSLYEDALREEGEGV
# Assay: TR-FRET primary / single point screen at 15 µM
# Format: binding
# Settings: single point TR-FRET screening of 797 quinoline compounds against MAGE-A11:PCF11
# Summary of the method: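 Single-point screen at 15 µM final compound in 50 mM Tris pH 7.5, 20 mM MgCl2, 0.1 mg/ml BSA, 1 mM DTT, with 200 nM FAM-PCF11_4, 5 nM Tb-anti-GST and 5 nM GST-MAGE-A11. After 90 min at room temperature, the 520/490 nm TR-FRET ratio (340 nm excitation) gave %Inhibition against no-MAGE-A11 and DMSO controls.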
row,Structure (SMILES),percent inhibition (TR-FRET)
1,CCOc1ccc2ncc(C(=O)c3ccc(C)cc3)c(N3CCN(CC)CC3)c2c1 [SJ000247284],-14.2514
2,CN1CCN(c2c(S(=O)(=O)c3ccc(Cl)cc3)cnc3ccccc23)CC1 [SJ000247306],-10.1441
3,CCc1ccc2ncc(S(=O)(=O)c3ccc(C)c(C)c3)c(N3CCN(C)CC3)c2c1 [SJ000247332],2.973
4,COc1ccc2ncc(S(=O)(=O)c3ccc(C)c(C)c3)c(N3CCN(C)CC3)c2c1 [SJ000247333],-8.554
5,CCc1ccc2ncc(S(=O)(=O)c3ccc(C)c(C)c3)c(N3CCN(CC)CC3)c2c1 [SJ000247334],-4.712
6,CCN1CCN(c2c(S(=O)(=O)c3ccc(C)c(C)c3)cnc3ccc(OC)cc23)CC1 [SJ000247335],-4.579
7,CN1CCN(c2c(C(=O)c3ccccc3)cnc3ccc(Cl)cc23)CC1 [SJ000247338],-5.573
8,CCOc1ccc(C(=O)c2cnc3ccc(C)cc3c2N2CCN(CC)CC2)cc1 [SJ000247339],-10.8066
9,Cc1ccc(S(=O)(=O)c2cnc3ccc(F)cc3c2N2CCN(C)CC2)cc1C [SJ000247344],-7.6267
10,CCN1CCN(c2c(S(=O)(=O)c3ccc(C)c(C)c3)cnc3ccc(F)cc23)CC1 [SJ000247345],1.118
11,CCOc1ccc2ncc(S(=O)(=O)c3ccc(C)c(C)c3)c(N3CCN(C)CC3)c2c1 [SJ000247354],-14.0527
12,CCOc1ccc2ncc(S(=O)(=O)c3ccc(C)c(C)c3)c(N3CCN(CC)CC3)c2c1 [SJ000247355],-13.3902
13,CCN1CCN(c2c(C(=O)c3ccccc3)cnc3ccc(OC)cc23)CC1 [SJ000247365],-0.2733
14,CCN1CCN(c2c(S(=O)(=O)c3ccc(Cl)cc3)cnc3ccccc23)CC1 [SJ000247367],-2.261
15,CCc1ccc(S(=O)(=O)c2cnc3ccccc3c2N2CCN(C)CC2)cc1 [SJ000278939],11.585
16,CCOC(=O)c1cnc2ccc(OC)cc2c1N1CCN(C)CC1 [SJ000279507],-2.791
17,CCOC(=O)c1cnc2ccc(OCC)cc2c1N1CCN(C)CC1 [SJ000279526],-7.064

row,Structure (SMILES),percent inhibition (TR-FRET)
1,CCOC(=O)c1cnc2c(CC)cccc2c1NCCN1CCOCC1 [SJ000279714],-6.103
2,CCOC(=O)c1cnc2ccc(C(=O)O)cc2c1N1CCN(CCO)CC1 [SJ000280902],-0.5958
3,CCOC(=O)c1cnc2c(C(F)(F)F)cccc2c1NCCN1CCOCC1 [SJ000281260],0.8341
4,CCN(CC)CCCC(C)Nc1ccnc2cc(Cl)ccc12 (centres unmarked) [SJ000285185],-2.592
5,CCN(CC)CCCC(C)Nc1c2ccc(Cl)cc2nc2ccc(OC)cc12 (centres unmarked) [SJ000285202],-265.674
6,CCN(CCO)CCCC(C)Nc1ccnc2cc(Cl)ccc12 (centres unmarked) [SJ000286026],3.702
7,Clc1ccc2c(NC3CCN(Cc4ccc(Cl)o4)CC3)ccnc2c1 [SJ000311180],0.6827
8,Oc1ccc(Br)cc1CN1CCC(Nc2ccnc3cc(Cl)ccc23)CC1 [SJ000311181],-1.209
9,CCCN(CCCCNc1ccnc2cc(Cl)ccc12)Cc1cc(Br)ccc1O [SJ000311196],5.724
10,CCCN(CCCCNc1ccnc2cc(Cl)ccc12)CCCSC [SJ000311197],3.903
11,CCCN(CCCCNc1ccnc2cc(Cl)ccc12)Cc1ccc[nH]1 [SJ000311198],-0.9977
12,CCCN(CCCCNc1ccnc2cc(Cl)ccc12)Cc1sccc1C [SJ000311199],6.494
13,CCCN(CCCCNc1ccnc2cc(Cl)ccc12)Cc1ccoc1 [SJ000311200],12.3053
14,CCCN(CCCCNc1ccnc2cc(Cl)ccc12)Cc1cc(F)ccc1OC [SJ000311202],5.3962
15,CCCN(CCCCNc1ccnc2cc(Cl)ccc12)Cc1c(F)cccc1OC [SJ000311203],6.844
16,CCCN(CCCCNc1ccnc2cc(Cl)ccc12)Cc1c[nH]c2ccccc12 [SJ000311204],-3.378
17,CCCN(CCCCNc1ccnc2cc(Cl)ccc12)Cc1ccccc1 [SJ000311205],7.684

# Same assay, conditions: single point TR-FRET screening of quinoline compounds against MAGE-A11:PCF11; 15 µM
row,Structure (SMILES),percent inhibition (TR-FRET)
1,CCOC(=O)c1cnc2c(Cl)cccc2c1NCCCN1CCOCC1 [SJ000279431],4.102
2,CCOC(=O)c1cnc2ccc(OCC)cc2c1NCCCN1CCOCC1 [SJ000279525],5.532
3,CCOC(=O)c1cnc2c(C)cccc2c1NCCCN1CCOCC1 [SJ000279636],3.353
4,CCOC(=O)c1cnc2ccc(C(=O)OC)cc2c1NCCCN1CCOCC1 [SJ000279665],10.7073
5,CCOC(=O)c1cnc2ccc(F)cc2c1NCCCN1CCOCC1 [SJ000279864],-0.3915
6,Clc1ccc2c(NCCCN(Cc3ccccc3)CC3CC=CCC3)ccnc2c1 (centres unmarked) [SJ000311182],16.0865
7,CC(C)CCN(CCCNc1ccnc2cc(Cl)ccc12)Cc1ccccc1 [SJ000311183],2.673
8,CC(CCN(CCCNc1ccnc2cc(Cl)ccc12)Cc1ccccc1)c1ccccc1 (centres unmarked) [SJ000311184],17.3464
9,Cc1ccsc1CNCCCNc1ccnc2cc(Cl)ccc12 [SJ000311189],6.554
10,Cc1ccc(CNCCCNc2ccnc3cc(Cl)ccc23)s1 [SJ000311190],10.8349
11,CCCN(CCCNc1ccnc2cc(Cl)ccc12)Cc1ccc(Br)o1 [SJ000311195],14.4758
12,c1ccc(Oc2ccc3c(NCCCNCc4ccco4)ccnc3c2)cc1 [SJ000311206],14.5885
13,COc1ccccc1Oc1ccc2c(NCCCNCc3ccco3)ccnc2c1 [SJ000311210],24.558
14,COc1cccc(Oc2ccc3c(NCCCNCc4ccco4)ccnc3c2)c1 [SJ000311214],29.109
15,COc1ccc(Oc2ccc3c(NCCCNCc4ccco4)ccnc3c2)cc1 [SJ000311218],36.2507
16,Fc1ccc(Oc2ccc3c(NCCCNCc4ccco4)ccnc3c2)cc1 [SJ000311222],9.365
17,Clc1ccc(Oc2ccc3c(NCCCNCc4ccco4)ccnc3c2)cc1 [SJ000311226],37.651
18,CN(C)c1cccc(Oc2ccc3c(NCCCNCc4ccco4)ccnc3c2)c1 [SJ000311230],63.4168
19,CC(C)(C)c1ccc(Oc2ccc3c(NCCCNCc4ccco4)ccnc3c2)cc1 [SJ000311234],57.5354
20,Fc1ccc(-c2ccc3c(NCCCNCc4ccco4)ccnc3c2)cc1 [SJ000311238],27.4287

row,Structure (SMILES),percent inhibition (TR-FRET)
1,CC(C)CCc1ccc2c(NCCCNCc3ccco3)ccnc2c1 [SJ000311246],13.0054
2,c1coc(CNCCCNc2ccnc3cc(CC4CCCCC4)ccc23)c1 [SJ000311250],40.6616
3,c1ccc(CCc2ccc3c(NCCCNCc4ccco4)ccnc3c2)cc1 [SJ000311254],15.9461
4,CC(C)Cc1ccc2c(NCCCNCc3ccco3)ccnc2c1 [SJ000311258],8.8745
5,c1coc(CNCCCNc2ccnc3cc(C4CCCCC4)ccc23)c1 [SJ000311262],32.9599
6,CCC(CC)c1ccc2c(NCCCNCc3ccco3)ccnc2c1 [SJ000311266],24.558
7,FC(F)(F)c1cc(-c2ccc3c(NCCCNCc4ccco4)ccnc3c2)cc(C(F)(F)F)c1 [SJ000311270],59.7059
8,c1coc(CNCCCNc2ccnc3cc(-c4cccc5ccccc45)ccc23)c1 [SJ000311274],41.5719
9,FC(F)(F)c1ccc(-c2ccc3c(NCCCNCc4ccco4)ccnc3c2)cc1 [SJ000311278],56.2051
10,c1ccc(-c2ccc3c(NCCCNCc4ccco4)ccnc3c2)cc1 [SJ000311282],28.689
11,CC(C)(C)c1ccc(-c2ccc3c(NCCCNCc4ccco4)ccnc3c2)cc1 [SJ000311286],73.499
12,c1coc(CNCCCNc2ccnc3cc(-c4ccc5c(c4)OCO5)ccc23)c1 [SJ000311290],30.7894
13,COc1ccc(-c2ccc3c(NCCCNCc4ccco4)ccnc3c2)cc1 [SJ000311294],7.824
14,FC(F)(F)c1cccc(Cc2ccc3c(NCCCNCc4ccco4)ccnc3c2)c1 [SJ000311298],27.0086
15,N#Cc1ccc(Cc2ccc3c(NCCCNCc4ccco4)ccnc3c2)cc1 [SJ000311302],20.4271
16,c1ccc(Cc2ccc3c(NCCCNCc4ccco4)ccnc3c2)cc1 [SJ000311306],64.537
17,COc1cc(Cc2ccc3c(NCCCNCc4ccco4)ccnc3c2)cc(OC)c1 [SJ000311310],23.7879
18,Clc1cccc(Cl)c1Cc1ccc2c(NCCCNCc3ccco3)ccnc2c1 [SJ000311314],32.3998
19,Cc1cc(C)cc(Cc2ccc3c(NCCCNCc4ccco4)ccnc3c2)c1 [SJ000311318],39.3055
20,Fc1ccc(Cc2ccc3c(NCCCNCc4ccco4)ccnc3c2)c(Cl)c1 [SJ000311322],24.7681
